Reference: PubChem BioAssay (NCI)
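Cultured in 96-well plates, cells were exposed to test compound for 48 hours across five concentrations. Abbreviation: GI50, concentration required for 50% inhibition of growth. TGI: total growth inhibition.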

Assays:
Assay in all cases: NCI tumour cell line growth inhibition, 48 h
786-0 renal = system: 786-0 renal
HL-60(TB) leukemia = system: HL-60(TB) leukemia
HS 578T breast = system: HS 578T breast
KM12 colon = system: KM12 colon
MDA-MB-231 breast = system: MDA-MB-231 breast
MOLT-4 leukemia = system: MOLT-4 leukemia
OVCAR-8 ovarian = system: OVCAR-8 ovarian
SW-620 colon = system: SW-620 colon
A549 NSCLC = system: A549 NSCLC
BT-549 breast = system: BT-549 breast

SMILES	TGI (786-0 renal)	TGI (HL-60(TB) leukemia)	TGI (HS 578T breast)	TGI (KM12 colon)	TGI (MDA-MB-231 breast)	TGI (MOLT-4 leukemia)	TGI (OVCAR-8 ovarian)	TGI (SW-620 colon)	TGI (A549 NSCLC)	GI50 (786-0 renal)	GI50 (A549 NSCLC)	GI50 (BT-549 breast)	TGI (BT-549 breast)	GI50 (HS 578T breast)	GI50 (KM12 colon)	GI50 (MDA-MB-231 breast)	GI50 (MOLT-4 leukemia)	GI50 (OVCAR-8 ovarian)	GI50 (SW-620 colon)	GI50 (HL-60(TB) leukemia)
CC(=O)OC1CC2CCC1(C)C2(C)C (stereo not given)	> 100 µM	> 100 µM	> 100 µM	> 100 µM	> 100 µM	> 100 µM	> 100 µM	> 100 µM	–	–	–	–	–	–	–	–	–	–	–	–
CC(=O)N1CC2Nc3ccccc3C2CC1CO (stereo not given)	> 100 µM	> 100 µM	–	> 100 µM	–	> 100 µM	> 100 µM	> 100 µM	> 100 µM	–	–	–	–	–	–	–	–	–	–	–
CCCCCCCCCCCC(=O)OCC1OC(n2cc(F)c(=O)[nH]c2=O)C(N)C(OC(=O)CCCCCCCCCCC)C1O (stereo not given)	> 100 µM	> 100 µM	–	> 100 µM	–	> 100 µM	> 100 µM	> 100 µM	> 100 µM	–	–	–	–	–	–	–	–	–	–	–
Cc1ccccc1C(=O)Oc1ccc(Oc2ccccc2)cc1	> 100 µM	> 100 µM	–	> 100 µM	–	> 100 µM	> 100 µM	> 100 µM	> 100 µM	–	–	–	–	–	–	–	–	–	–	–
O=C1/C(=C/c2ccccc2Cl)N=C(c2ccccc2)N1Cc1ccco1	> 100 µM	–	> 100 µM	> 100 µM	> 100 µM	> 100 µM	> 100 µM	> 100 µM	> 100 µM	34.7 µM	27.7 µM	39.8 µM	> 100 µM	72.8 µM	36.1 µM	19.7 µM	13.3 µM	> 100 µM	89.6 µM	–
CCC[CH2][Sn]([CH2]CCC)([O]C(=O)c1cccc(F)c1)[O]C(=O)c1cccc(F)c1	2.49 µM	–	–	2.79 µM	–	2.41 µM	2.6 µM	–	9.45 µM	1.19 µM	2.89 µM	–	–	–	1.29 µM	–	0.363 µM	1.22 µM	–	–
Cc1cc(NS(=O)(=O)c2ccc(NC(=O)c3cccc4c(N)c5ccccc5nc34)cc2)no1	33.7 µM	–	–	58.3 µM	–	> 100 µM	59.4 µM	94.2 µM	> 100 µM	–	–	–	–	–	–	–	–	–	–	–
CC(=O)O[C@@H]1CO[C@H]2O[C@H]3[C@@H](C(C=O)=C[C@H](O)[C@@H]4C5=C(C(C)C)CC[C@]5(C)CC[C@@]34C)[C@@]2(O)C1=O	0.253 µM	–	0.594 µM	1.46 µM	0.407 µM	0.28 µM	0.52 µM	0.213 µM	5.57 µM	–	–	–	0.353 µM	–	–	–	–	–	–	–
C=C=C(C)[Si](C)(C)C	> 100 µM	> 100 µM	> 100 µM	> 100 µM	> 100 µM	> 100 µM	> 100 µM	> 100 µM	> 100 µM	–	–	–	–	–	–	–	–	–	–	–
C=C1CC(CCCl)(c2ccccc2)OC1=O (stereo not given)	31.7 µM	44.8 µM	–	> 100 µM	–	49.9 µM	> 100 µM	39.5 µM	> 100 µM	–	–	–	–	–	–	–	–	–	–	–
O=c1ccccc2cccc(O)c12	> 100 µM	> 100 µM	–	–	–	> 100 µM	> 100 µM	> 100 µM	> 100 µM	–	–	–	–	–	–	–	–	–	–	–
O=C(COc1cccc(/C=C2\COc3ccccc3C2=O)c1)Nc1nccs1	4.14 µM	3.44 µM	10.9 µM	3.15 µM	17 µM	–	11.2 µM	3.98 µM	6.22 µM	2.05 µM	2.41 µM	–	–	2.67 µM	1.71 µM	3.55 µM	–	3.4 µM	1.97 µM	1.59 µM
